Measured values: ChEMBL document CHEMBL5150045, “Structure-Guided Design of Halofuginone Derivatives as ATP-Aided Inhibitors Against Bacterial Prolyl-tRNA Synthetase” (J Med Chem, 2022)
Converted amounts (≈) assume the structure as drawn. “And” between values parts separate entries of the source, which are not always exact repeats. Identical values can stand only once. The source made the active and inactive calls. The calls are words filed in the database; no cut-off is given here.

Key:
Salmonella typhi = assay: Antibacterial activity against Salmonella typhi CMCC50094 assessed as prevention of visible growth by broth microdilution method; type: functional, Salmonella enterica subsp. enterica serovar Typhi; details: Salmonella enterica
Escherichia coli [1] = assay: Antibacterial activity against Escherichia coli ATCC25922 assessed as prevention of visible growth by broth microdilution method; type: functional
Staphylococcus aureus [2] = assay: Antibacterial activity against methicillin-resistant Staphylococcus aureus R3708 assessed as prevention of visible growth by broth microdilution method; type: functional
Staphylococcus aureus [3] = assay: Antibacterial activity against methicillin-resistant Staphylococcus aureus 252 assessed as prevention of visible growth by broth microdilution method; type: functional
Staphylococcus aureus [4] = assay: Antibacterial activity against Staphylococcus aureus ATCC29213 assessed as prevention of visible growth by broth microdilution method; type: functional
Staphylococcus aureus [5] = assay: Bacteriostatic effect against methicillin-resistant Staphylococcus aureus 252 assessed as decrease in CFU/ml at MIC measured for 24 hrs by CLSI based time-kill kinetic assays; type: functional
Staphylococcus aureus [6] = assay: Antibacterial activity against Staphylococcus aureus ATCC25923 assessed as prevention of visible growth by broth microdilution method; type: functional
Shigella flexneri = assay: Antibacterial activity against Shigella flexneri CMCC51572 assessed as prevention of visible growth by broth microdilution method; type: functional
[7] = target: T1, Proline--tRNA ligase (Escherichia coli) (UniProt P16659); assay: Inhibition of Escherichia coil ProRS expressed in Escherichia coli assessed as change in melting temperature in presence of AMPPNP at 0.5 mM by fluorescence-based thermal shift assay
T1 sequence (whole entry): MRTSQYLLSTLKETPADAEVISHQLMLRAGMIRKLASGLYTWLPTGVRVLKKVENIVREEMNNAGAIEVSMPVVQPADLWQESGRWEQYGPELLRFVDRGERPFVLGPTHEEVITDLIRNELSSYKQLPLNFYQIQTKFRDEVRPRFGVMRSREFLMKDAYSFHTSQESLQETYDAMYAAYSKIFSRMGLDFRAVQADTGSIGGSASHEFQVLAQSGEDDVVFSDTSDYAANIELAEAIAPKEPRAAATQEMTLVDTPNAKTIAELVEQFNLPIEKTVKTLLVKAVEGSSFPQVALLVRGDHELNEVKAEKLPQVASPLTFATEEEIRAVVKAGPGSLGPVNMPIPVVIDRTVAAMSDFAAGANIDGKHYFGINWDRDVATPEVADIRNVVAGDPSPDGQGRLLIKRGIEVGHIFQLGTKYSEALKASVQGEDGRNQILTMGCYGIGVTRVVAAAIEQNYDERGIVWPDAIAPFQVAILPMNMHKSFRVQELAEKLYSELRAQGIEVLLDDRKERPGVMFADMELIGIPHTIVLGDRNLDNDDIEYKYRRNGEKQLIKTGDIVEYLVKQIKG

[8] = target: T2, Proline--tRNA ligase (Salmonella typhi) (UniProt Q8XEY9); assay: Inhibition of Salmonella typhi ProRS expressed in Escherichia coli assessed as generation of inorganic monophosphate by pre-transfer editing-based experiment; details: Salmonella enterica subsp. enterica serovar Typhi; dose 0-100 µM; DDE = dose-dependent effect
T2 sequence (whole entry): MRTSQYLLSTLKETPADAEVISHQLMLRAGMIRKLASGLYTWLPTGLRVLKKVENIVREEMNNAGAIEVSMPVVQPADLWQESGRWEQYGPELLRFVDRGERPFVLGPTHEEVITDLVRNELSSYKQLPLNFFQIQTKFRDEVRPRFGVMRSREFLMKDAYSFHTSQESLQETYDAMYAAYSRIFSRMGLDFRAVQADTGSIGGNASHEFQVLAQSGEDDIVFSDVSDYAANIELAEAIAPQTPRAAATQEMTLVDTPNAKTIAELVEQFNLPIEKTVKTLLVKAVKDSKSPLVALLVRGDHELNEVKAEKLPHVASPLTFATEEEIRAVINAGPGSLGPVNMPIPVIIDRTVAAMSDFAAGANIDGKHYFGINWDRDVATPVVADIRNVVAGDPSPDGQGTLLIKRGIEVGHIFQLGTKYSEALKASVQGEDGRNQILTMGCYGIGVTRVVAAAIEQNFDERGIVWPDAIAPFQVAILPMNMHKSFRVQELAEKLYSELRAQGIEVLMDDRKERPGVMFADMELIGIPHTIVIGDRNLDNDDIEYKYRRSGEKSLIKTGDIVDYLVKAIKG

Staphylococcus aureus [9] = assay: (§1) Inhibition of methicillin-resistant Staphylococcus aureus ProRS expressed in Escherichia coli assessed as generation of inorganic monophosphate by pre-transfer editing-based experiment; details: dose 0-100 µM, DDE = dose-dependent effect
[10] = as §1
Homo sapiens [11] = organism: Homo sapiens; assay: Inhibition of human ProRS expressed in Escherichia coli assessed as change in melting temperature in presence of AMPPNP at 0.5 mM by fluorescence-based thermal shift assay
[12] = Binding affinity to methicillin-resistant Staphylococcus aureus ProRS expressed in Escherichia coli assessed as dissociation constant in presence of 0.5 nM ATP by microscale thermophoresis assay
[13] = Binding affinity to methicillin-resistant Staphylococcus aureus ProRS expressed in Escherichia coli assessed as dissociation constant in presence of 2 nM ATP by microscale thermophoresis assay
[14] = Cytotoxicity against human HepG2 cells; type: toxicity, cell-based
[15] = Binding affinity to methicillin-resistant Staphylococcus aureus ProRS expressed in Escherichia coli assessed as dissociation constant in presence of 0.2 nM ATP by microscale thermophoresis assay
Staphylococcus aureus [16] = assay: Inhibition of methicillin-resistant Staphylococcus aureus ProRS expressed in Escherichia coli assessed as change in melting temperature in presence of AMPPNP at 0.5 mM by fluorescence-based thermal shift assay
[17] = Binding affinity to methicillin-resistant Staphylococcus aureus ProRS expressed in Escherichia coli assessed as dissociation constant in presence of 0.1 nM ATP by microscale thermophoresis assay
[18] = target: T1, Proline--tRNA ligase (Escherichia coli); assay: Inhibition of Escherichia coli ProRS expressed in Escherichia coli assessed as generation of inorganic monophosphate by pre-transfer editing-based experiment; details: dose 0-100 µM, DDE = dose-dependent effect
[19] = Binding affinity to methicillin-resistant Staphylococcus aureus ProRS expressed in Escherichia coli assessed as dissociation constant in presence of 0.05 nM ATP by microscale thermophoresis assay
Saccharomyces cerevisiae = assay: Inhibition of Saccharomyces cerevisiae ProRS expressed in Escherichia coli assessed as generation of inorganic monophosphate at 0 to 100 uM by pre-transfer editing-based experiment; details: dose 0-100 µM, DDE = dose-dependent effect
[20] = target: T2, Proline--tRNA ligase (Salmonella typhi); assay: Inhibition of Salmonella typhi ProRS expressed in Escherichia coli assessed as change in melting temperature in presence of AMPPNP at 0.5 mM by fluorescence-based thermal shift assay; details: Salmonella enterica subsp. enterica serovar Typhi
Homo sapiens [21] = organism: Homo sapiens; assay: Inhibition of human ProRS expressed in Escherichia coli assessed as generation of inorganic monophosphate by pre-transfer editing-based experiment; details: dose 0-100 µM, DDE = dose-dependent effect
[22] = Binding affinity to methicillin-resistant Staphylococcus aureus ProRS expressed in Escherichia coli assessed as dissociation constant by microscale thermophoresis assay
[23] = Binding affinity to methicillin-resistant Staphylococcus aureus ProRS expressed in Escherichia coli assessed as dissociation constant in presence of 1 nM ATP by microscale thermophoresis assay
Staphylococcus aureus [24] = assay: Ratio of MBC99.9 for methicillin-resistant Staphylococcus aureus 252 to MIC for methicillin-resistant Staphylococcus aureus 252; type: functional
Staphylococcus aureus [25] = assay: Resistance development in methicillin-resistant Staphylococcus aureus 252 assessed as fold increase in resistance after 15 days serial passage upto 256 ug/ml; type: functional; details: dose <= 256 µg/ml; time 15 day
Staphylococcus aureus [26] = assay: Bactericidal activity against methicillin-resistant Staphylococcus aureus 252 assessed as bacterial killing measured after 24 hrs incubation by CLSI method; type: functional; details: read-out: MBC99.9
Escherichia coli [27] = assay: Bacteriostatic effect against Escherichia coli ATCC25922 assessed as decrease in CFU/ml at 4 times of MIC measured for 24 hrs by CLSI based time-kill kinetic assays; type: functional
Staphylococcus aureus [28] = assay: Bacteriostatic effect against methicillin-resistant Staphylococcus aureus 252 assessed as decrease in CFU/ml at 4 times of MIC measured for 24 hrs by CLSI based time-kill kinetic assays; type: functional
Escherichia coli [29] = assay: Resistance development in Escherichia coli ATCC25922 assessed as fold increase in resistance after 15 days serial passage upto 256 ug/ml; type: functional; details: dose <= 256 µg/ml; time 15 day
[30] = Selectivity index, ratio of CC50 for human HepG2 cells to MIC for methicillin-resistant Staphylococcus aureus 252; type: toxicity; details: read-out: Selectivity Index
Escherichia coli [31] = assay: Ratio of MBC99.9 for Escherichia coli ATCC25922 to MIC for Escherichia coli ATCC25922; type: functional
Escherichia coli [32] = assay: Bacteriostatic effect against Escherichia coli ATCC25922 assessed as decrease in CFU/ml at 1 to 4 times of MIC measured for 0 to 12 hrs by CLSI based time-kill kinetic assays; type: functional, organism-based; details: time 0-12 hrs
Escherichia coli [33] = assay: Antibacterial activity against drug-resistance induced Escherichia coli ATCC25922 assessed as assessed as reversal of drug resistance measured after 10 days in compound free media by broth microdilution method; type: functional; details: ATCC25922, 240 h, time 10 day
Staphylococcus aureus [34] = assay: Antibacterial activity against drug-resistance induced methicillin-resistant Staphylococcus aureus 252 assessed as assessed as reversal of drug resistance measured after 10 days in compound free media by broth microdilution method; type: functional; details: Staphylococcus aureus, 252, 240 h; time 10 day
Staphylococcus aureus [35] = assay: Bacteriostatic effect against methicillin-resistant Staphylococcus aureus 252 assessed as decrease in CFU/ml at 1 to 4 times of MIC measured for 0 to 12 hrs by CLSI based time-kill kinetic assays; type: functional, organism-based; details: time 0-12 hrs

| SMILES | MIC (Salmonella typhi) [µg/mL] | MIC (Escherichia coli [1]) [µg/mL] | MIC (Staphylococcus aureus [2]) [µg/mL] | MIC (Staphylococcus aureus [3]) [µg/mL] | MIC (Staphylococcus aureus [4]) [µg/mL] | MIC (Staphylococcus aureus [6]) [µg/mL] | MIC (Shigella flexneri) [µg/mL] | IC50 [10] [µM] | ΔTm (Homo sapiens [11]) | Kd [12] [µM] | Kd [13] [µM] | CC50 [14] [µM] | Kd [15] [µM] | ΔTm (Staphylococcus aureus [16]) | Kd [17] [µM] | Kd [19] [µM] | Kd [22] [µM] | Kd [23] [µM] | further results |
| --- | --- | --- | --- | --- | --- | --- | --- | --- | --- | --- | --- | --- | --- | --- | --- | --- | --- | --- | --- |
| C/C(=C\C(=O)OCCCCCCCCC(=O)O)C[C@@H]1OC[C@H](C[C@@H]2O[C@H]2[C@@H](C)[C@H](C)O)[C@@H](O)[C@H]1O [MUPIROCIN] | 32 (≈ 63.9 µM) | 32 (≈ 63.9 µM) | 0.13 (≈ 0.26 µM) | 0.13 (≈ 0.26 µM) | 0.13 (≈ 0.26 µM) | 0.13 (≈ 0.26 µM) | 8 (≈ 16 µM) | – | – | – | – | – | – | – | – | – | – | – | Activity (Staphylococcus aureus [5]): 1.2 log10CFU/ml |
| O=C(CC1NCCCC1O)Cn1cnc2cc(Br)c(Cl)cc2c1=O (stereo not drawn) [HALOFUGINONE] | > 64 | 64 (≈ 154 µM) | 64 (≈ 154 µM) | 64 (≈ 154 µM) | > 64 | > 64 | 64 (≈ 154 µM) | 0.66 | 13.6 °C and 17.4 °C | 5.51 | 0.216 | 4.32 | 11.6 | 6.9 °C and 6 °C | 628 | 781 | 1020 | 0.423 | ΔTm [7]: 17.4 °C; inhibition [8]: Dde; inhibition (Staphylococcus aureus [9]): Dde; inhibition [18]: Dde; inhibition (Saccharomyces cerevisiae): Dde; ΔTm [20]: 12.5 °C; inhibition (Homo sapiens [21]): Dde |
| O=C(C[C@@H]1CCCCN1)Cn1cnc2cc(Cl)c(F)cc2c1=O | 4 (≈ 11.8 µM) | 1 (≈ 2.96 µM) | 1 (≈ 2.96 µM) | 1 (≈ 2.96 µM) | 2 (≈ 5.92 µM) | 4 (≈ 11.8 µM) | 1 (≈ 2.96 µM) | 0.18 | 20.4 °C | 0.691 | 0.0303 | 0.076 | 8.33 | 10.2 °C | 205 | 276 | 376 | 0.0675 | Ratio (Staphylococcus aureus [24]): 8; fold change (FC) (Staphylococcus aureus [25]): 15; MBC (Staphylococcus aureus [26]): 8 µg/mL (≈ 23.7 µM); Activity (Escherichia coli [27]): 1.6 log10CFU/ml; Activity (Staphylococcus aureus [28]): 2.1 log10CFU/ml; fold change (FC) (Escherichia coli [29]): 16; selectivity ratio [30]: 3600; Ratio (Escherichia coli [31]): 16; Activity (Escherichia coli [32]): Active; MIC (Escherichia coli [33]): 8 µg/mL; MIC (Staphylococcus aureus [34]): 4 µg/mL; Activity (Staphylococcus aureus [35]): Active |
